Source: ChEMBL document CHEMBL1201862, “PubChem BioAssay data set” (2004)
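Protocol summary: plate cells (96-well), add compound at 5 concentrations, incubate 48 h, interpolate endpoints linearly. GI50 is the concentration that inhibits growth by half.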 Active and inactive are the calls of the source. Rule as the data show it: active = GI50 up to about 1.1 µM and inactive = higher.

Assays:
Test in all cases: inhibition of tumour cell growth, NCI panel, 48 h
LOX IMVI = system: LOX IMVI
M14 = system: M14
OVCAR-3 = system: OVCAR-3
NCI-H226 = system: NCI-H226
NCI-H23 = system: NCI-H23
U-251 = system: U-251
KM12 = system: KM12
SR = system: SR
SK-MEL-5 = system: SK-MEL-5
NCI-H522 = system: NCI-H522
NCI-H460 = system: NCI-H460
HL-60 = system: HL-60
SN12C = system: SN12C
OVCAR-5 = system: OVCAR-5
HOP-92 = system: HOP-92
EKVX = system: EKVX
MDA-MB-435 = system: MDA-MB-435
T47D = system: T47D
MCF7 = system: MCF7
MDA-MB-231 = system: MDA-MB-231

Measured: GI50

OC(c1ccccc1)(c1ccccc1)c1ccncc1
inactive: LOX IMVI > 100 µM | M14 > 100 µM | OVCAR-3 > 100 µM | NCI-H226 > 100 µM | NCI-H23 > 100 µM | U-251 > 100 µM | KM12 > 100 µM | SR > 100 µM | SK-MEL-5 > 100 µM | NCI-H522 > 100 µM | NCI-H460 > 100 µM | HL-60 > 100 µM | SN12C > 100 µM | OVCAR-5 > 100 µM | HOP-92 74 µM | EKVX > 100 µM

Cc1ccc(SC2C(C)(C)N(C(C)C)P2(=O)N(C(C)C)C(C)C)cc1 (centres undefined)
inactive: LOX IMVI 28 µM | M14 71.4 µM | OVCAR-3 55.5 µM | NCI-H226 > 100 µM | NCI-H23 26.7 µM | U-251 > 59 µM | KM12 > 100 µM | SR 14.2 µM | SK-MEL-5 22.4 µM | NCI-H522 20.5 µM | NCI-H460 27.5 µM | HL-60 14.7 µM | SN12C 38.6 µM | OVCAR-5 > 100 µM | HOP-92 5.58 µM | EKVX 26.4 µM

N#Cc1ccc(Sc2ccccc2)cc1C#N
inactive: LOX IMVI 19.9 µM | M14 > 100 µM | OVCAR-3 > 100 µM | NCI-H226 > 100 µM | NCI-H23 50.5 µM | U-251 36.1 µM | KM12 > 100 µM | SR 18.7 µM | SK-MEL-5 > 100 µM | NCI-H522 31.7 µM | NCI-H460 22.2 µM | HL-60 > 100 µM | SN12C 60.3 µM | OVCAR-5 > 100 µM | HOP-92 30.1 µM | EKVX > 100 µM

C/C(=N/N)c1sc(-c2nc(C)c(/C(C)=N\N)s2)nc1C
inactive: LOX IMVI 39.5 µM | M14 > 95.3 µM | OVCAR-3 > 100 µM | NCI-H226 > 100 µM | NCI-H23 > 100 µM | U-251 > 100 µM | KM12 > 100 µM | SR 16.4 µM | SK-MEL-5 > 100 µM | NCI-H522 > 53.6 µM | NCI-H460 59.3 µM | HL-60 30.1 µM | SN12C > 100 µM | OVCAR-5 > 100 µM | HOP-92 > 100 µM | EKVX > 100 µM

O=C1C=C(Nc2ccccc2C(=O)CC(=O)C(=O)Nc2ccc(Cl)cc2)c2ccccc2C1=O
inactive: LOX IMVI 1.93 µM | M14 10.9 µM | OVCAR-3 2.39 µM | NCI-H226 24.4 µM | NCI-H23 9.91 µM | U-251 20.1 µM | KM12 14.6 µM | SR > 100 µM | SK-MEL-5 4.32 µM | NCI-H522 7.85 µM | NCI-H460 16.3 µM | HL-60 3.32 µM | SN12C 12.6 µM | OVCAR-5 19.6 µM | HOP-92 21.9 µM | EKVX 32.4 µM

Cc1n[n+](Cc2ccccc2)c2sc(N)nn12
inactive: LOX IMVI > 100 µM | M14 > 100 µM | OVCAR-3 > 100 µM | MDA-MB-435 > 100 µM | NCI-H226 74 µM | NCI-H23 > 100 µM | T47D > 100 µM | MCF7 > 100 µM | U-251 > 100 µM | KM12 > 100 µM | SK-MEL-5 39.4 µM | NCI-H522 30 µM | NCI-H460 > 10 µM | SN12C > 100 µM | OVCAR-5 > 100 µM | EKVX > 100 µM

Cc1ccc2c(=O)c3cccc(CC(=O)O)c3[nH]c2c1C
inactive: LOX IMVI > 100 µM | M14 > 100 µM | OVCAR-3 57.8 µM | MDA-MB-435 65.6 µM | NCI-H226 > 100 µM | NCI-H23 > 100 µM | MCF7 71.6 µM | U-251 27.9 µM | KM12 > 100 µM | SR > 100 µM | MDA-MB-231 > 100 µM | SK-MEL-5 33.3 µM | NCI-H522 > 100 µM | NCI-H460 > 100 µM | HL-60 > 100 µM | SN12C > 100 µM | HOP-92 > 100 µM | EKVX > 100 µM
